# Experiments:
# Test in all cases: radiometric filter-binding kinase assay, Kinase HotSpot
# Conditions in all cases: compound 0.5 µM; ATP 10 µM
# ADRBK1 (human) = ADRBK1 (human) (UniProt P25098)
# AKT2 (human) = AKT2 (human) (UniProt P31751)
# AURKC (human) = AURKC (human) (UniProt Q9UQB9)
# CAMK2G (human) = CAMK2G (human) (UniProt Q13555)
# CAMK4 (human) = CAMK4 (human) (UniProt Q16566)
# CDK1 CCNA2 (human) = CDK1 CCNA2 (human) (UniProt P06493+P20248)
# CDK1 CCNB1 (human) = CDK1 CCNB1 (human) (UniProt P06493+P14635)
# CDK3 CCNE1 (human) = CDK3 CCNE1 (human) (UniProt Q00526+P24864)
# Chain of CDK3 CCNE1 (human) (P24864 whole entry, looked up): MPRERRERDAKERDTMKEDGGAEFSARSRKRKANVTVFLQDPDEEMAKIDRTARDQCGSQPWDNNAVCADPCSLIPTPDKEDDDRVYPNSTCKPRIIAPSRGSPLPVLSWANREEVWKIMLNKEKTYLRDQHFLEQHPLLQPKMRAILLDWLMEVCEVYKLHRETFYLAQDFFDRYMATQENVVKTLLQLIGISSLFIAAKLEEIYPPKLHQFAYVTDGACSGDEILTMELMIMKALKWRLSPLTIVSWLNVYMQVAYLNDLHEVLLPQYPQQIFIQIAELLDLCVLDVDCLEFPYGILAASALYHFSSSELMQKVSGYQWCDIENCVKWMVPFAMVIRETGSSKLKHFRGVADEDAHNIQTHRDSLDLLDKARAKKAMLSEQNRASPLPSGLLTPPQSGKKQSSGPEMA
# Chain of CDK3 CCNE1 (human) (Q00526 whole entry, looked up): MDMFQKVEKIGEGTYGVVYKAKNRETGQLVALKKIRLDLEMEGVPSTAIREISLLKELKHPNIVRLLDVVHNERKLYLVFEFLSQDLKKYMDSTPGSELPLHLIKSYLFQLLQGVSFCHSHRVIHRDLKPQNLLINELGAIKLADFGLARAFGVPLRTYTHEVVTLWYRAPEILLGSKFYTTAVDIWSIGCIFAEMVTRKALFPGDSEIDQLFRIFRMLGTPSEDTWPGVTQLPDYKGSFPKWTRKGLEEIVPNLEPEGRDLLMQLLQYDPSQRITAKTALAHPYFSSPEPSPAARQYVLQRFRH
# CDK4 CCND3 (human) = CDK4 CCND3 (human) (UniProt P30281+P11802)
# CHEK1 (human) = CHEK1 (human) (UniProt O14757)
# Chain of CHEK1 (human) (O14757 whole entry, looked up): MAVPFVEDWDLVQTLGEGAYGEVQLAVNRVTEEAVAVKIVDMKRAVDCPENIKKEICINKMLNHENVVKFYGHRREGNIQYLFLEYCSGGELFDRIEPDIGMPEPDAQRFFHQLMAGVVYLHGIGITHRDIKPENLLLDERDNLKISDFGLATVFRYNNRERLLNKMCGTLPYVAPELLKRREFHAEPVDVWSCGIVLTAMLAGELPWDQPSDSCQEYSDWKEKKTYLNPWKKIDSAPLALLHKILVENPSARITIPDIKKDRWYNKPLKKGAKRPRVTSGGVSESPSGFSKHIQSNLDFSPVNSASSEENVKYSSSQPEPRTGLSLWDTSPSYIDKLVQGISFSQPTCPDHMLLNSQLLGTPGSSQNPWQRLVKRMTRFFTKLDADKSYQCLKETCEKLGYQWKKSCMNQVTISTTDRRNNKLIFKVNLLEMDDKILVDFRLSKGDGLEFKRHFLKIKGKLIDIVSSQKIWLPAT
# CSK (human) = CSK (human) (UniProt P41240)
# FGR (human) = FGR (human) (UniProt P09769)
# FRK (human) = FRK (human) (UniProt P42685)
# GSK3A (human) = GSK3A (human) (UniProt P49840)
# HCK (human) = HCK (human) (UniProt P08631)
# HIPK3 (human) = HIPK3 (human) (UniProt Q9H422)
# INSRR (human) = INSRR (human) (UniProt P14616)
# Chain of INSRR (human) (P14616 whole entry, looked up): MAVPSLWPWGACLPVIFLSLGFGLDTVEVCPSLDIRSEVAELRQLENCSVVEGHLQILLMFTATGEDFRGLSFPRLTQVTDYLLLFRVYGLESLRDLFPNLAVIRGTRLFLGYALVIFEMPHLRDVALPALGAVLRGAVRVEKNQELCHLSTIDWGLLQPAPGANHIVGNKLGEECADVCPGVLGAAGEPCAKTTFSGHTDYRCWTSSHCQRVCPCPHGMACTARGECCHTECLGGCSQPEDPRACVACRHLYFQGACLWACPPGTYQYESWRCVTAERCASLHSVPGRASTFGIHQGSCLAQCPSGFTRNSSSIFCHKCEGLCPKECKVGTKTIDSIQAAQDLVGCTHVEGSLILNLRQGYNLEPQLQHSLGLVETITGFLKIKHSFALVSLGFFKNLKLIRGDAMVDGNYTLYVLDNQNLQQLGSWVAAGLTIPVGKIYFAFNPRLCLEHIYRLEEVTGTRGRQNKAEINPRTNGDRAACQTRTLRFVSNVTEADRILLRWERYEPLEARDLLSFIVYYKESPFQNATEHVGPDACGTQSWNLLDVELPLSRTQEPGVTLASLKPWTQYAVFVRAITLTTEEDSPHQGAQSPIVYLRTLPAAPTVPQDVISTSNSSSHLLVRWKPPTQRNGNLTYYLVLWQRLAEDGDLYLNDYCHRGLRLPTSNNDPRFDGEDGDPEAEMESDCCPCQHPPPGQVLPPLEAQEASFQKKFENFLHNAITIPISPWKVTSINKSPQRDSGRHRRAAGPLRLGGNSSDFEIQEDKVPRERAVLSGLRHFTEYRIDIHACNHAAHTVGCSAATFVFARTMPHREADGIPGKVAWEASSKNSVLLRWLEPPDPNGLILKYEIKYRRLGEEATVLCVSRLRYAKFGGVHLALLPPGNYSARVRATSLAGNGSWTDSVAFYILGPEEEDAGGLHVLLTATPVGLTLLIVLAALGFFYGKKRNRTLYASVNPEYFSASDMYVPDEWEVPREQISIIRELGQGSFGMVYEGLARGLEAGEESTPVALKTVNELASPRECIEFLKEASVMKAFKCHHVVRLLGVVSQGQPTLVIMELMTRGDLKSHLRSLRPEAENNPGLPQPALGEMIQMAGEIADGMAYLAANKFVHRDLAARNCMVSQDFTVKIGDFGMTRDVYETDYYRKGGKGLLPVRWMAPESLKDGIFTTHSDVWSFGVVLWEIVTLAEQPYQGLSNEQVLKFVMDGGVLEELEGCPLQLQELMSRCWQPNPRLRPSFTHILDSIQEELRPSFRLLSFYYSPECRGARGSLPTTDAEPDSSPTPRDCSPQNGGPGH
# IRAK4 (human) = IRAK4 (human) (UniProt Q9NWZ3)
# Chain of IRAK4 (human) (Q9NWZ3 whole entry, looked up): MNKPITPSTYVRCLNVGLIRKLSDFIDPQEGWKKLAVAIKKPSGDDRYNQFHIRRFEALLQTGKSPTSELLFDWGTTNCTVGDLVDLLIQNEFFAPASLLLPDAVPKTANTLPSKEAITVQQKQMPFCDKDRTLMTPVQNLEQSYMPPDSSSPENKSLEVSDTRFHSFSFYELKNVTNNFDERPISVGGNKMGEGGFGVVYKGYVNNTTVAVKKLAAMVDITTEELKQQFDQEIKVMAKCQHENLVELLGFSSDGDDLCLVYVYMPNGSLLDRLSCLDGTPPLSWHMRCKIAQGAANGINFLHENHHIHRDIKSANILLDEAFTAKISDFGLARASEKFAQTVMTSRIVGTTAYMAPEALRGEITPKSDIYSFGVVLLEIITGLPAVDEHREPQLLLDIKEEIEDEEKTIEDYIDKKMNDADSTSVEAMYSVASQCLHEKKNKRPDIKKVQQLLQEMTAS
# [1] = target: JAK1 JH1 catalytic (human) (UniProt P23458)
# MAP2K2 (human) = MAP2K2 (human) (UniProt P36507)
# MAP3K11 (human) = MAP3K11 (human) (UniProt Q16584)
# MAP3K2 (human) = MAP3K2 (human) (UniProt Q9Y2U5)
# MAP3K3 (human) = MAP3K3 (human) (UniProt Q99759)
# MAP3K9 (human) = MAP3K9 (human) (UniProt P80192)
# MAP4K2 (human) = MAP4K2 (human) (UniProt Q12851)
# MAPK12 (human) = MAPK12 (human) (UniProt P53778)
# NEK1 (human) = NEK1 (human) (UniProt Q96PY6)
# NEK9 (human) = NEK9 (human) (UniProt Q8TD19)
# NTRK3 (human) = NTRK3 (human) (UniProt Q16288)
# PAK7 (human) = PAK7 (human) (UniProt Q9P286)
# PDGFRA (human) = PDGFRA (human) (UniProt P16234)
# PIM2 (human) = PIM2 (human) (UniProt Q9P1W9)
# PIM3 (human) = PIM3 (human) (UniProt Q86V86)
# PRKX (human) = PRKX (human) (UniProt P51817)
# SLK (human) = SLK (human) (UniProt Q9H2G2)
# SRC (human) = SRC (human) (UniProt P12931)
# STK24 (human) = STK24 (human) (UniProt Q9Y6E0)
# STK33 (human) = STK33 (human) (UniProt Q9BYT3)
# TEK (human) = TEK (human) (UniProt Q02763)
# TGFBR1 (human) = TGFBR1 (human) (UniProt P36897)
# Chain of TGFBR1 (human) (P36897 whole entry, looked up): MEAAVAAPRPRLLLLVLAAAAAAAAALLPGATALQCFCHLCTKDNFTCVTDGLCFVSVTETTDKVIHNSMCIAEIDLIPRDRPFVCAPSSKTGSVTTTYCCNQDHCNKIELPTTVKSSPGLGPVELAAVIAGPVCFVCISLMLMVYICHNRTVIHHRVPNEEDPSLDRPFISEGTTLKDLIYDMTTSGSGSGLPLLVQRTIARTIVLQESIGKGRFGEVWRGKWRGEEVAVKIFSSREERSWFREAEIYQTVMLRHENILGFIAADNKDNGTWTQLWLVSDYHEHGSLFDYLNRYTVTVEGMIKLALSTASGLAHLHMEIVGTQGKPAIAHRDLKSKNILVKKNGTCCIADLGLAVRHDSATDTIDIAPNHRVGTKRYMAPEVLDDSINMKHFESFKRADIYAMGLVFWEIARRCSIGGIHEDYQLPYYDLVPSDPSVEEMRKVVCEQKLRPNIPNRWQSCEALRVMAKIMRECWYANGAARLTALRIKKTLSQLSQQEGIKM
# TNK2 (human) = TNK2 (human) (UniProt Q07912)
# WNK2 (human) = WNK2 (human) (UniProt Q9Y3S1)
# Chain of ADRBK1 (human) (P25098 whole entry, looked up): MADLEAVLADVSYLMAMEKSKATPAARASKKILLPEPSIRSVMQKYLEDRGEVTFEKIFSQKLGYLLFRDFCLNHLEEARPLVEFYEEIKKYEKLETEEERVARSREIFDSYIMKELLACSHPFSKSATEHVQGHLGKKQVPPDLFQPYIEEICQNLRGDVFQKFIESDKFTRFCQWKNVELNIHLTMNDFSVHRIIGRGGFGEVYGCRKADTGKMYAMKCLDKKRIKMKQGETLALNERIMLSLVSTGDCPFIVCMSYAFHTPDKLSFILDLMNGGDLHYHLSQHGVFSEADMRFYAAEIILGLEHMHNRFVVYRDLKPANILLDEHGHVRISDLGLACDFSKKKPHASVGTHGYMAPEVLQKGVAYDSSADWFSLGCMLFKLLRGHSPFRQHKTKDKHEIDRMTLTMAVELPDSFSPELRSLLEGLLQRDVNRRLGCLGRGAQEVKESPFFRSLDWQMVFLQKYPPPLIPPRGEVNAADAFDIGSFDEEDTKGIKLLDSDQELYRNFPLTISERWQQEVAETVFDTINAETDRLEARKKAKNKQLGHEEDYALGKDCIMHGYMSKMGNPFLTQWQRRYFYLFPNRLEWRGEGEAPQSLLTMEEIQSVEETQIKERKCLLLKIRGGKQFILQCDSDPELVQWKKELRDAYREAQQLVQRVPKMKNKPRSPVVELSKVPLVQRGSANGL
# Chain of CAMK4 (human) (Q16566 whole entry, looked up): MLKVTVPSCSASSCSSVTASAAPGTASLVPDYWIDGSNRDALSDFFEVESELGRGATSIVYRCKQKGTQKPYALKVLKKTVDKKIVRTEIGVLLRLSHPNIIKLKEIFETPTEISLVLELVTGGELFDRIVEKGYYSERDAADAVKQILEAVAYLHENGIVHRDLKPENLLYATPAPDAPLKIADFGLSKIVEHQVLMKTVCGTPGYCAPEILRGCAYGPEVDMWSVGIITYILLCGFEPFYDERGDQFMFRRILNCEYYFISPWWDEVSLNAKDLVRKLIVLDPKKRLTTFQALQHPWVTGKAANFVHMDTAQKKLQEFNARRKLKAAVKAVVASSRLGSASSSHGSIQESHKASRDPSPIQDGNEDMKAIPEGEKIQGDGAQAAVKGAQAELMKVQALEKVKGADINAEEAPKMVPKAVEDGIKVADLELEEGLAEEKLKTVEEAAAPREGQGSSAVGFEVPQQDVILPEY
# Chain of AURKC (human) (Q9UQB9 whole entry, looked up): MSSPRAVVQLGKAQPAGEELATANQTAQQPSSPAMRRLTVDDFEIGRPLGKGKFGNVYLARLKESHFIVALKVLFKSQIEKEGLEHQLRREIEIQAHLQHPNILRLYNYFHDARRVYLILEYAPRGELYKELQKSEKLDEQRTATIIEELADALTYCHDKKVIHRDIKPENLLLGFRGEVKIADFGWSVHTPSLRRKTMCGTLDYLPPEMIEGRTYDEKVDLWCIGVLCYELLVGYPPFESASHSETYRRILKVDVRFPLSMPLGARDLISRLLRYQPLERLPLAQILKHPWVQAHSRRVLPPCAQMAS
smiles,measurement,setting,value
CCN(CC)C(=O)c1ccc(Nc2nc(OCC3CCCCC3)c3nc[nH]c3n2)cc1,residual activity,ADRBK1 (human),92.6%
same,residual activity,AKT2 (human),92%
same,residual activity,AURKC (human),20.7%
same,residual activity,CAMK2G (human),95.2%
same,residual activity,CAMK4 (human),97.7%
same,residual activity,CDK1 CCNA2 (human),95.2%
same,residual activity,CDK1 CCNB1 (human),62.4%
same,residual activity,CDK3 CCNE1 (human),90.4%
same,residual activity,CDK4 CCND3 (human),59.2%
same,residual activity,CHEK1 (human),66.1%
same,residual activity,CSK (human),83.1%
same,residual activity,FGR (human),54.2%
same,residual activity,FRK (human),116%
same,residual activity,GSK3A (human),80.3%
same,residual activity,HCK (human),63.1%
same,residual activity,HIPK3 (human),96.4%
same,residual activity,INSRR (human),80.8%
same,residual activity,IRAK4 (human),92.4%
same,residual activity,[1],51.8%
same,residual activity,MAP2K2 (human),94%
same,residual activity,MAP3K11 (human),5.55%
same,residual activity,MAP3K2 (human),25.3%
same,residual activity,MAP3K3 (human),47.3%
same,residual activity,MAP3K9 (human),3.8%
same,residual activity,MAP4K2 (human),59.7%
same,residual activity,MAPK12 (human),99.4%
same,residual activity,NEK1 (human),53.1%
same,residual activity,NEK9 (human),81.9%
same,residual activity,NTRK3 (human),32.3%
same,residual activity,PAK7 (human),49.1%
same,residual activity,PDGFRA (human),66.6%
same,residual activity,PIM2 (human),105%
same,residual activity,PIM3 (human),109%
same,residual activity,PRKX (human),93.4%
same,residual activity,SLK (human),71.2%
same,residual activity,SRC (human),72.8%
same,residual activity,STK24 (human),84.5%
same,residual activity,STK33 (human),67.2%
same,residual activity,TEK (human),95.4%
same,residual activity,TGFBR1 (human),100%
same,residual activity,TNK2 (human),21.4%
same,residual activity,WNK2 (human),88.6%
Nc1ncnc2c1c(-c1ccc(Oc3ccccc3)cc1)cn2C1CCCC1,residual activity,ADRBK1 (human),97.8%
same,residual activity,AKT2 (human),99.7%
same,residual activity,AURKC (human),95%
same,residual activity,CAMK2G (human),95%
same,residual activity,CAMK4 (human),101%
same,residual activity,CDK1 CCNA2 (human),93.7%
same,residual activity,CDK1 CCNB1 (human),110%
same,residual activity,CDK3 CCNE1 (human),92.6%
same,residual activity,CDK4 CCND3 (human),108%
same,residual activity,CHEK1 (human),113%
same,residual activity,CSK (human),3.4%
same,residual activity,FGR (human),2.93%
same,residual activity,FRK (human),6.25%
same,residual activity,GSK3A (human),105%
same,residual activity,HCK (human),2.18%
same,residual activity,HIPK3 (human),116%
same,residual activity,INSRR (human),81.9%
same,residual activity,IRAK4 (human),98.5%
same,residual activity,[1],111%
same,residual activity,MAP2K2 (human),103%
same,residual activity,MAP3K11 (human),92.9%
same,residual activity,MAP3K2 (human),83.8%
same,residual activity,MAP3K3 (human),71.2%
same,residual activity,MAP3K9 (human),103%
same,residual activity,MAP4K2 (human),89.4%
same,residual activity,MAPK12 (human),97.6%
same,residual activity,NEK1 (human),79.3%
same,residual activity,NEK9 (human),96.6%
same,residual activity,NTRK3 (human),67.9%
same,residual activity,PAK7 (human),102%
same,residual activity,PDGFRA (human),65%
same,residual activity,PIM2 (human),110%
same,residual activity,PIM3 (human),98.7%
same,residual activity,PRKX (human),102%
same,residual activity,SLK (human),96.5%
same,residual activity,SRC (human),13.4%
same,residual activity,STK24 (human),100%
same,residual activity,STK33 (human),92.3%
same,residual activity,TEK (human),94.3%
same,residual activity,TGFBR1 (human),96.1%
same,residual activity,TNK2 (human),2.7%
same,residual activity,WNK2 (human),102%
Nc1ncnc2[nH]nc(Nc3ccc(F)cc3)c12,residual activity,ADRBK1 (human),98.6%
same,residual activity,AKT2 (human),108%
same,residual activity,AURKC (human),96%
same,residual activity,CAMK2G (human),119%
same,residual activity,CAMK4 (human),103%
same,residual activity,CDK1 CCNA2 (human),93%
same,residual activity,CDK1 CCNB1 (human),90.7%
same,residual activity,CDK3 CCNE1 (human),104%
same,residual activity,CDK4 CCND3 (human),111%
same,residual activity,CHEK1 (human),88%
same,residual activity,CSK (human),80.2%
same,residual activity,FGR (human),89.5%
same,residual activity,FRK (human),90%
same,residual activity,GSK3A (human),88.6%
same,residual activity,HCK (human),90.7%
same,residual activity,HIPK3 (human),101%
same,residual activity,INSRR (human),96.9%
same,residual activity,IRAK4 (human),88.3%
same,residual activity,[1],99%
same,residual activity,MAP2K2 (human),90%
same,residual activity,MAP3K11 (human),93.9%
same,residual activity,MAP3K2 (human),95.6%
same,residual activity,MAP3K3 (human),87.6%
same,residual activity,MAP3K9 (human),100%
same,residual activity,MAP4K2 (human),88.9%
same,residual activity,MAPK12 (human),94.2%
same,residual activity,NEK1 (human),94%
same,residual activity,NEK9 (human),97.9%
same,residual activity,NTRK3 (human),81.5%
same,residual activity,PAK7 (human),116%
same,residual activity,PDGFRA (human),101%
same,residual activity,PIM2 (human),89.3%
same,residual activity,PIM3 (human),95%
same,residual activity,PRKX (human),90.4%
same,residual activity,SLK (human),99.5%
same,residual activity,SRC (human),89.6%
same,residual activity,STK24 (human),81.6%
same,residual activity,STK33 (human),94.3%
same,residual activity,TEK (human),94.9%
same,residual activity,TNK2 (human),61.5%
same,residual activity,WNK2 (human),110%
c1ccc(-c2n[nH]cc2-c2ccnc3ccccc23)nc1,residual activity,ADRBK1 (human),101%
same,residual activity,AKT2 (human),93%
same,residual activity,AURKC (human),100%
same,residual activity,CAMK2G (human),85.9%
same,residual activity,CAMK4 (human),97.5%
same,residual activity,CDK1 CCNA2 (human),82.7%
same,residual activity,CDK1 CCNB1 (human),106%
same,residual activity,CDK3 CCNE1 (human),94.2%
same,residual activity,CDK4 CCND3 (human),102%
same,residual activity,CHEK1 (human),99.7%
same,residual activity,CSK (human),102%
same,residual activity,FGR (human),91.9%
same,residual activity,FRK (human),92.8%
same,residual activity,GSK3A (human),95.1%
same,residual activity,HCK (human),98.5%
same,residual activity,HIPK3 (human),97%
same,residual activity,INSRR (human),101%
same,residual activity,IRAK4 (human),87.7%
same,residual activity,[1],96.7%
same,residual activity,MAP2K2 (human),106%
same,residual activity,MAP3K11 (human),96.5%
same,residual activity,MAP3K2 (human),91.2%
same,residual activity,MAP3K3 (human),79.4%
same,residual activity,MAP3K9 (human),90.4%
same,residual activity,MAP4K2 (human),103%
same,residual activity,MAPK12 (human),106%
same,residual activity,NEK9 (human),94.7%
same,residual activity,NTRK3 (human),92.7%
same,residual activity,PAK7 (human),97.1%
same,residual activity,PDGFRA (human),98.1%
same,residual activity,PIM2 (human),115%
same,residual activity,PIM3 (human),90.6%
same,residual activity,PRKX (human),102%
same,residual activity,SLK (human),104%
same,residual activity,SRC (human),94.7%
same,residual activity,STK24 (human),96.8%
same,residual activity,STK33 (human),92.9%
same,residual activity,TEK (human),98.8%
same,residual activity,TGFBR1 (human),41.6%
same,residual activity,TNK2 (human),96.2%
same,residual activity,WNK2 (human),49.2%

# Source: the kinase profiling compilation of Christmann-Franck et al. (2016)
